System: plasma thyroid stimulating hormone (TSH)
Experiment: Administration of MetAP-2 inhibitor to obese subjects: plasma TSH and circulating thyroid hormones
Type: in vivo, human (obese subjects)
Procedure: FIG. 1 depicts the results of administration of a MetAP2 inhibitor to obese patients and indicates the reduction in plasma thyroid stimulating hormone, without reductions in circulating thyroid hormone (free T3 and T4) concentrations.
8 obese subjects who were not taking any thyroid medication were treated with O-(4-dimethylaminoethoxycinnamoyl)fumagillol at a dose of 0.9 mg per square meter of body surface area (approximately 1.8 mg per dose) for 26 days. […] (FIG. 1). This is indicative of improved thyroid hormone sensitivity and a reduction in thyroid hormone resistance.

SMILES: CO[C@@H]1[C@H](OC(=O)C=Cc2ccc(OCCN(C)C)cc2)CC[C@]2(CO2)[C@H]1[C@@]1(C)O[C@@H]1CC=C(C)C [O-(4-dimethylaminoethoxycinnamoyl)fumagillol]
- plasma thyroid stimulating hormone (TSH) (8 obese subjects not taking thyroid medication, 0.9 mg per square meter of body surface area (approximately 1.8 mg per dose) for 26 days): significant reduction
- circulating thyroid hormone T4 (8 obese subjects, 0.9 mg per square meter of body surface area for 26 days, T4 (FIG. 1)): without a reduction
- circulating thyroid hormone T3 (8 obese subjects, 0.9 mg per square meter of body surface area for 26 days, free T3 (FIG. 1)): without a reduction

— patent US20140073691A1, “Methods and composition for Treating Thyroid Hormone Related Disorders” (Zafgen, Inc., priority 2010, published 2014)
